Counter-ions that a name gives are not always drawn.
System: L-687,414-induced hyperlocomotion
Test: L-687,414-induced hyperlocomotion (Digiscan locomotor activity)
Format: in vivo, mouse
Conditions: mice; for inhibition at 30 mg/kg: dose ip 30 mg/kg; for ID50 po: dose producing 50% inhibition of L-687,414-induced hyperlocomotion, p.o. 15 min before s.c. 50 mg/kg L-687,414
Text: The authors described that hyperlocomotion induced by L-687,414 was inhibited by a series of known antipsychotic drugs. […] These findings predict antipsychotic activity for the present compounds, making them useful for the treatment of positive (psychosis) and negative symptoms of schizophrenia, substance abuse, alcohol and drug addiction, obsessive-compulsive disorders, cognitive impairment, bipolar disorders, mood disorders, major depression, resistant depression, anxiety disorders, Alzheimer's disease, autism, Parkinson's disease, chronic pain, borderline personality disorder, sleep disturbances, chronic fatigue syndrome, stiffness, antiinflammatory effects in arthritis and balance problems.
The described compounds of formula I reduce L-687,414-induced hyperlocomotion. This was assessed by using a computerized Digiscan 16 Animal Activity Monitoring System (Omnitech Electronics, Columbus, Ohio) to quantify locomotor activity. Animals were kept under a 12 h light/dark cycle and experiments were performed during the light period. Each activity monitoring chamber consisted of a Plexiglas box (41×41×28 cm; W×L×H) with sawdust bedding on the floor surrounded by invisible horizontal and vertical infrared sensor beams. The test boxes were divided by a Plexiglas cross providing each mouse with 20×20 cm of moving space. Cages were connected to a Digiscan Analyzer linked to a computer that constantly collected the beam status information. Records of photocell beam interruptions for individual animals were taken every 5 min over the duration of the experimental session and the sum of the first 6 periods was used as the final parameter. Compounds were administered either p.o. 15 min before a s.c. injection of 50 mg/kg of L-687,414, or i.p. at the same time as a s.c. injection of 50 mg/kg of L-687,414. Mice were then transferred from their home cage to the recording chambers for a 15-min habituation phase allowing free exploration of the new environment. Horizontal activity was then recorded for a 30-min time period. The % inhibition of L-687,414-induced hyperlocomotion was calculated according to the equation: ((Veh+L-687,414 horizontal activity−drug+L-687,414 horizontal activity)Veh+L-687,414 horizontal activity)×100
ID50 values, defined as doses of each compound producing 50% inhibition of L-687,414-induced hyperlocomotion, were calculated by linear regression analysis of a dose-response data using an Excel-based computer-fitting program.
As data was not presupposed to be normally distributed, groups treated with test compounds were statistically compared with the control (vehicle-treated) group using one-tailed Mann Whitney U tests. In statistics, the Mann-Whitney Utest (also called the Mann-Whitney-Wilcoxon (MWW) or Wilcoxon rank-sum test) is a non-parametric statistical hypothesis test for assessing whether one of two samples of independent observations tends to have larger values than the other. It is one of the most well-known non-parametric significance tests. […] P values given in table 1 are one-tailed since only decreases in locomotion were expected and tested for (Mann, H. B., Whitney, D. R. (1947), “On a Test of Whether one of Two Random Variables is Stochastically Larger than the Other”, Annals of Mathematical Statistics, 18 (1), 50-60).

[1] = Mus musculus, at the same time as s.c. 50 mg/kg L-687,414

Compound	inhibition at 30 mg/kg [1]	further results
CN1C(=O)C(C)(C)c2ccc(-c3cn(CC(F)(F)F)cn3)cc21 [Example 134, 1,3,3-Trimethyl-6-(1-(2,2,2-trifluoroethyl)-1H-imidazol-4-yl)indolin-2-one]	79.8%	
Cc1ncnc(C)c1-c1ccc2c(c1)N(C)C(=O)C2(C)C [Example 31, 6-(4,6-Dimethyl-pyrimidin-5-yl)-1,3,3-trimethyl-1,3-dihydro-indol-2-one]	81.2%	
CC1(C)C(=O)Nc2cc(-n3cnc(C(O)C(F)(F)F)c3)ccc21 (centres unmarked) [Example 168, 3,3-Dimethyl-6-[4-(2,2,2-trifluoro-1-hydroxy-ethyl)imidazol-1-yl]indolin-2-one]	77%	
O=C1N(C2CC2)c2cc(-c3cccnc3)ncc2C12CC2 [Example 140, 1′-Cyclopropyl-6′-(pyridin-3-yl)spiro[cyclopropane-1,3′-pyrrolo[3,2-c]pyridin]-2′(1′H)-one]	69.3%	
Cc1cc(-c2ccc3c(c2)N(C)C(=O)C3(C)C)on1 [Example 143, 1,3,3-Trimethyl-6-(3-methylisoxazol-5-yl)indolin-2-one]	65.7%	
CN1C(=O)C(C)(C)c2cc(F)c(-c3cncnc3)c(F)c21 [Example 43, 5,7-Difluoro-1,3,3-trimethyl-6-pyrimidin-5-yl-1,3-dihydro-indol-2-one]	60.5%	
Cc1ncc(-c2ccc3c(c2)N(CCCF)C(=O)C3(C)C)cn1 [Example 131, 1-(3-Fluoropropyl)-3,3-dimethyl-6-(2-methylpyrimidin-5-yl)indolin-2-one]	95.3%	
Cc1noc(-c2ccc3c(c2)N(C)C(=O)C3(C)C)n1 [Example 59, 1,3,3-Trimethyl-6-(3-methyl-1,2,4-oxadiazol-5-yl)indolin-2-one]	45.2%	
CN1C(=O)C(C)(C)c2ccc(-c3cnc(N)nc3)cc21 [Example 10, 6-(2-Aminopyrimidin-5-yl)-1,3,3-trimethylindolin-2-one]	97.1%	
CC1(C)C(=O)Nc2cc(-c3cnc(N)nc3)ccc21 [Example 16, 6-(2-Aminopyrimidin-5-yl)-3,3-dimethylindolin-2-one]	89.4%	
CCc1ncncc1-c1ccc2c(c1)N(C)C(=O)C2(C)C [Example 14, 6-(4-Ethylpyrimidin-5-yl)-1,3,3-trimethylindolin-2-one]	66.4%	
Cc1cnccc1-c1ccc2c(c1)NC(=O)C2(C)C [Example 20, 3,3-Dimethyl-6-(3-methylpyridin-4-yl)indolin-2-one]	47.5%	
Cc1noc(-c2ccc3c(c2)NC(=O)C3(C)C)n1 [Example 60, 3,3-Dimethyl-6-(3-methyl-1,2,4-oxadiazol-5-yl)indolin-2-one]	24%	
CN(C)c1ncc(-c2ccc3c(c2)N(C)C(=O)C3(C)C)cn1 [Example 11, 6-(2-(Dimethylamino)pyrimidin-5-yl)-1,3,3-trimethylindolin-2-one]	72.2%	
Cc1ncc(-c2ccc3c(c2)N(CCOC(F)(F)F)C(=O)C3(C)C)cn1 [Example 128, 3,3-Dimethyl-6-(2-methylpyrimidin-5-yl)-1(2-(trifluoromethoxy)ethyl)indolin-2-one]	66.1%	
Cc1nnc(-c2ccc3c(c2)N(C)C(=O)C3(C)C)s1 [Example 72, 1,3,3-Trimethyl-6-(5-methyl-1,3,4-thiadiazol-2-yl)indolin-2-one]	67.4%	
Cc1ncc(-c2ccc3c(c2)N(CCCO)C(=O)C3(C)C)cn1 [Example 56, 1-(3-Hydroxypropyl)-3,3-dimethyl-6-(2-methylpyrimidin-5-yl)indolin-2-one]	93.9%	
Cc1ncc(-c2ccc3c(c2)N(CCCOC2CC2)C(=O)C3(C)C)cn1 [Example 50, 1-(3-Cyclopropoxypropyl)-3,3-dimethyl-6-(2-methylpyrimidin-5-yl)indolin-2-one]	86.3%	
Cc1ncc(-c2cc3c(cn2)C(C)(C)C(=O)N3)cn1 [Example 92, 3,3-Dimethyl-6-(2-methylpyrimidin-5-yl)-1H-pyrrolo[3,2-c]pyridin-2-one]	80.9%	

Compound	inhibition at 30 mg/kg [1]	further results
Cc1cc(-c2cc3c(cn2)C(C)(C)C(=O)N3C)ccn1 [Example 83, 1,3,3-Trimethyl-6-(2-methyl-4-pyridyl)pyrrolo[3,2-c]pyridin-2-one]	53%	
Cc1cncc(C)c1-c1ccc2c(c1)N(C)C(=O)C2(C)C [Example 28, 6-(3,5-Dimethyl-pyridin-4-yl)-1,3,3-trimethyl-1,3-dihydro-indol-2-one formate]	68.4%	
Cc1cc(-c2cc3c(cn2)C2(CC2)C(=O)N3C)ccn1 [Example 136, 1′-Methyl-6′-(2-methylpyridin-4-yl)spiro[cyclopropane-1,3′-pyrrolo[3,2-c]pyridin]-2′(1′H)-one]	89.7%	
CN1C(=O)C(C)(C)c2ccc(-n3ccnc3)cc21 [Example 61, 6-(1H-Imidazol-1-yl)-1,3,3-trimethylindolin-2-one]		ID50 po: 10.71 mg/kg
Cc1ncc(-c2ccc3c(c2)N(CCO)C(=O)C3(C)C)cn1 [Example 55, 1-(2-Hydroxyethyl)-3,3-dimethyl-6-(2-methylpyrimidin-5-yl)indolin-2-one]		ID50 po: 0.88 mg/kg
Cc1ncc(-c2ccc3c(c2)N(C)C(=O)C3(C)C)cn1 [Example 12, 1,3,3-Trimethyl-6-(2-methylpyrimidin-5-yl)indolin-2-one]	93.7%	
CC1(C)C(=O)Nc2cc(-c3ccncc3)ccc21 [Example 7, 3,3-Dimethyl-6-(pyridin-4-yl)indolin-2-one]		ID50 po: 29.2 mg/kg
Cn1cc(-c2ccc3c(c2)NC(=O)C3(C)C)cn1 [Example 87, 3,3-Dimethyl-6-(1-methyl-1H-pyrazol-4-yl)indolin-2-one]	82.8%	
CN1C(=O)C(C)(C)c2ccc(-c3cccnc3)cc21 [Example 3, 1,3,3-Trimethyl-6-(pyridin-3-yl)indolin-2-one]	53.4%	
Cc1nnc(-c2ccc3c(c2)NC(=O)C3(C)C)o1 [Example 106, 3,3-Dimethyl-6-(5-methyl-1,3,4-oxadiazol-2-yl)indolin-2-one]	75.7%	
CN1C(=O)C(C)(C)c2cc(F)c(-c3ccncc3)cc21 [Example 38, 5-Fluoro-1,3,3-trimethyl-6-(pyridin-4-yl)indolin-2-one]	57.3%	
Cc1ncc(-c2ccc3c(c2)N(CC2CCC2)C(=O)C3(C)C)cn1 [Example 48, 1-(Cyclobutylmethyl)-3,3-dimethyl-6-(2-methylpyrimidin-5-yl)indolin-2-one]	68.6%	
CN1C(=O)C(C)(C)c2ccc(-c3ccc(C4CC4)nn3)cc21 [Example 79, 6-(6-Cyclopropylpyridazin-3-yl)-1,3,3-trimethyl-indolin-2-one]		inhibition at 20 mg/kg (Mus musculus, dose ip 20 mg/kg, at the same time as s.c. 50 mg/kg L-687,414): 62.5%
Cc1ncc(-c2ccc3c(c2)N(CCF)C(=O)C3(C)C)cn1 [Example 132, 1-(2-Fluoroethyl)-3,3-dimethyl-6-(2-methylpyrimidin-5-yl)indolin-2-one]	95.3%	
CN1C(=O)C(C)(C)c2ccc(-c3cncnc3)cc21 [Example 4, 1,3,3-Trimethyl-6-(pyrimidin-5-yl)indolin-2-one]	74.6%	
Cc1ncc(-c2ccc3c(c2)NC(=O)C3(C)C)cn1 [Example 21, 3,3-Dimethyl-6-(2-methylpyrimidin-5-yl)indolin-2-one]		ID50 po: 1.62 mg/kg
CCn1cnc(-c2ccc3c(c2)N(C)C(=O)C3(C)C)c1 [Example 133, 6-(1-Ethyl-1H-imidazol-4-yl)-1,3,3-trimethylindolin-2-one]	44%	
CN1C(=O)C(C)(C)c2ccc(-c3cccnc3)c(F)c21 [Example 34, 7-Fluoro-1,3,3-trimethyl-6-(pyridin-3-yl)indolin-2-one]	56.9%	
Cc1ncc(-c2ccc3c(c2)N(CC2COC2)C(=O)C3(C)C)cn1 [Example 129, 3,3-Dimethyl-6-(2-methylpyrimidin-5-yl)-1-(oxetan-3-ylmethyl)indolin-2-one]	95.5%	
